Biological target: T1, TRPV1 (Homo sapiens, UniProt Q8NER1)
T1 construct: expressed in transfected cells; host or cells: HEK293T
Test: Intramolecular BRET assay, YFP-TRPV1-Luc probe in HEK293T cells
Assay type: cell-based
Conditions: for Effect on CAPS-induced BRET increase: intramolecular test
Text: They were referred as YFP and Luc for short in the rest of the manuscript. The cDNA of Luc and YFP were first cloned together using a three-piece ligation in the BamHI/XhoI site of pcDNA3.1(+) (Invitrogen, Carlsbad, Calif., USA), yielding two expression vectors pcDNA3.1 YFP-Luc where YFP was cloned in-fusion at the N-terminal of Luc, and pcDNA3.1 Luc-YFP where Luc was cloned in-fusion at the N-terminal of YFP. Both YFP and Luc were amplified by PCR from the pcDNA3-YFP-EPAC-Luc vector. Luc was cloned either at the N-terminal of YFP as a HindIII-EcoRI fragment (primers used: “Luc_HindIII_ATGN-term sense” and “Luc_no Stop_EcoRI_N-term antisense”) or at the COOH-terminal of YFP as an EcoRI-XhoI fragment (primer used: “Luc_EcoRI_ATG_C-term sense” and “Luc_XhoI_Stop_C-term antisense”). In parallel, YFP was cloned either at the N-terminal of Luc as a HindIII-EcoRI fragment (primers used: “YFP_HindIII_ATG_N-term sense” and “YFP_no Stop_EcoRI_N-term antisense”) or at the COOH-terminal of Luc as a EcoRI-XhoI fragment (primer used: “YFP_EcoRI_ATG_C-term sense” and “YFP_XhoI_Stop_C-term antisense”). The sequence joining Luc and YFP sequence encoded […] NO: 18) as a linker, and contained an AgeI restriction site. The YFP-hTRPV1-Luc expression vector was obtained by subcloning the human TRPV1 cDNA from the pDONR201-hTRPV1 vector (Harvard Medical School PlasmID Repository, clone HsCD00081472) as an EcoRI PCR fragment in the EcoRI site of the vector pcDNA3.1 YFP-Luc (primer used: “hTRPV1_EcoRI_Fus_Sense” and “hTRPV1_EcoRI_Fus_antisense”). The hTRPV1-Luc expression vector was obtained by subcloning the cDNA of hTRPV1 as a HindIII-EcoRI fragment in place of the YFP in the HindIII-EcoRI site of the pcDNA3.1 YFP-Luc vector (primer used: “hTRPV1_HindIII_ATG_Sense” and “hTRPV1_EcoRI_Fus_antisense”). The Luc-hTRPV3 expression vector was obtained by subcloning the cDNA of hTRPV3 (Harvard Medical School PlasmID Repository, clone HsCD00341603) as a AgeI-XhoI fragment in place of the YFP in the AgeI-XhoI sites of the pcDNA3.1 Luc-YFP vector (primer used: “hTRPV3_AgeI_ATG_Sense” and “[…]_XhoI_antisense”). The hTRPV4-Luc expression vector was obtained by subcloning the cDNA of hTRPV4 as a BamHI-AgeI fragment in place of the YFP in the BamHI-AgeI site of the pcDNA3.1 YFP-Luc vector (primer used: “hTRPV4_BamHI_ATG_Sense” and hTRPV4_AgeI_Fus_antisense”). In each case, the sequence joining the cDNA of interest and either Luc or YFP sequence encoded […] NO: 18) as a linker. HEK293T cells were maintained in Dulbecco's modified Eagle's medium-high Glucose (DMEM) (D6429, Sigma) supplemented with 10% fetal bovine serum, 100 units mL-1 penicillin and streptomycin. Twenty-four hours before transfection, cells were seeded at a density of 500,000 cells in 6-well dishes. Transient transfections were performed using polyethylenimine (PEI, linear, Mr 25,000; catalogue number 23966 Polysciences, Inc., Warrington, Pa., USA) with a PEI:DNA ratio of 4:1. […] The amount of transfected DNA was completed to a total of 2 μg with pcDNA3.1 empty vector. After overnight incubation, transfected cells were then detached, resuspended in DMEM w/o red phenol (Ref 21063-029, ThermoFisher scientific, Waltham, Mass., USA) and replated at a density of 10^5 cells per well in 96-well white plates with clear bottoms (Greiner Bio one, Courtaboeuf, France) pre-treated with D-polylysine (Sigma) for reading with the Tristar2 luminometer (Berthold Technologies, Bad Wildbad, Germany) or onto 12 mm diameter glass coverslips ([…], Braunschweig, Germany) treated with poly-L-lysine for the reading with the SpectraPro 2300i spectrometer (Acton Optics, Acton, Mass., USA). Cells were left in culture for 24 h before being processed for the BRET assay.

[1] = temperature rise from 25 to 42° C.

T1 sequence (Q8NER1 whole entry): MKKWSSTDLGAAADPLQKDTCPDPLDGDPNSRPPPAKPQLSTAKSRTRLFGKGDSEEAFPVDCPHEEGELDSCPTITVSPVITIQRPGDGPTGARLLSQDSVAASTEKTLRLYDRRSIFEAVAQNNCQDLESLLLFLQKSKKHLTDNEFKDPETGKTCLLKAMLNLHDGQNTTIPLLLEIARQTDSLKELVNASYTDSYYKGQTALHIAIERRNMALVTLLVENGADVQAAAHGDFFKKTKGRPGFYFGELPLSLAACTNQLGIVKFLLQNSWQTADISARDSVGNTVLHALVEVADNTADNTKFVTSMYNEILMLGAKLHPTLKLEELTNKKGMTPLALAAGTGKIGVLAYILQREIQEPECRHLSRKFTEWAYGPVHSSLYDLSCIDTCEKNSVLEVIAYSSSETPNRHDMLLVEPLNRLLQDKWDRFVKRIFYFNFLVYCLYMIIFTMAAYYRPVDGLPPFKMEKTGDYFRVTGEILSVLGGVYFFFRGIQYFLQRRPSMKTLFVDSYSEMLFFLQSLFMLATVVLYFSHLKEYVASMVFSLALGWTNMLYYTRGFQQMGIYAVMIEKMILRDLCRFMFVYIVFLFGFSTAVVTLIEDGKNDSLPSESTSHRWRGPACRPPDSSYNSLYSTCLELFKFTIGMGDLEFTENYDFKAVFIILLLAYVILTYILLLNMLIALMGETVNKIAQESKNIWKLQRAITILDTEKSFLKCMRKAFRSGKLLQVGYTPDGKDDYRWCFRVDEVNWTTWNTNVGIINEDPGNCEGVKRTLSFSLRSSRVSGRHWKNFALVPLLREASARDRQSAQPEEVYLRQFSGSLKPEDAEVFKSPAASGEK

Row | Effect on CAPS-induced BRET increase | Change of basal BRET signal | Change in CAPS potency on temperature rise [1] | Change in maximal efficacy on temperature rise [1] | Structure (SMILES) | Temperature-dependent behaviour of the probe after preincubation (heating 25 to 50° C.)
1 | inhibited |  |  |  | CC(=O)Nc1nc2c(Oc3cc(-c4ccc(C(F)(F)F)cc4)ncn3)cccc2s1 [AMG517] | 
2 |  | increased with a first order kinetic | leftward shift | increase | COc1cc(CNC(=O)CCCC/C=C/C(C)C)ccc1O [CAPS, Capsaicin] | 
3 | inhibited |  |  |  | Oc1cc2c(cc1O)CN(C(=S)NCCc1ccc(Cl)cc1)CCC2 [CPZ, Capsazepine] | completely modified the temperature-dependent behaviour

Source: patent US20190353647A1, “NOVEL REAL-TIME MULTIPLEXED, MULTI-COLOR BIOLUMINESCENCE RESONANCE ENERGY TRANSFER ASSAY, APPARATUS, AND USES THEREOF” (Universite de Bordeaux, priority 2016, published 2019)
